{
  "source": "paper PMC5603267",
  "about": "(Cell metabolism, 2017)",
  "key": {"[1]": {"target": "acetyl-CoA carboxylase 1 (ACC1) (Homo sapiens, UniProt Q13085)", "experiment": "purified ACC incubated with MK-4074, ATP, acetyl-CoA and NaH14CO3", "type": "biochemical"}, "[2]": {"target": "acetyl-CoA carboxylase 2 (ACC2) (Homo sapiens, UniProt O00763)", "sequence (O00763 whole entry)": "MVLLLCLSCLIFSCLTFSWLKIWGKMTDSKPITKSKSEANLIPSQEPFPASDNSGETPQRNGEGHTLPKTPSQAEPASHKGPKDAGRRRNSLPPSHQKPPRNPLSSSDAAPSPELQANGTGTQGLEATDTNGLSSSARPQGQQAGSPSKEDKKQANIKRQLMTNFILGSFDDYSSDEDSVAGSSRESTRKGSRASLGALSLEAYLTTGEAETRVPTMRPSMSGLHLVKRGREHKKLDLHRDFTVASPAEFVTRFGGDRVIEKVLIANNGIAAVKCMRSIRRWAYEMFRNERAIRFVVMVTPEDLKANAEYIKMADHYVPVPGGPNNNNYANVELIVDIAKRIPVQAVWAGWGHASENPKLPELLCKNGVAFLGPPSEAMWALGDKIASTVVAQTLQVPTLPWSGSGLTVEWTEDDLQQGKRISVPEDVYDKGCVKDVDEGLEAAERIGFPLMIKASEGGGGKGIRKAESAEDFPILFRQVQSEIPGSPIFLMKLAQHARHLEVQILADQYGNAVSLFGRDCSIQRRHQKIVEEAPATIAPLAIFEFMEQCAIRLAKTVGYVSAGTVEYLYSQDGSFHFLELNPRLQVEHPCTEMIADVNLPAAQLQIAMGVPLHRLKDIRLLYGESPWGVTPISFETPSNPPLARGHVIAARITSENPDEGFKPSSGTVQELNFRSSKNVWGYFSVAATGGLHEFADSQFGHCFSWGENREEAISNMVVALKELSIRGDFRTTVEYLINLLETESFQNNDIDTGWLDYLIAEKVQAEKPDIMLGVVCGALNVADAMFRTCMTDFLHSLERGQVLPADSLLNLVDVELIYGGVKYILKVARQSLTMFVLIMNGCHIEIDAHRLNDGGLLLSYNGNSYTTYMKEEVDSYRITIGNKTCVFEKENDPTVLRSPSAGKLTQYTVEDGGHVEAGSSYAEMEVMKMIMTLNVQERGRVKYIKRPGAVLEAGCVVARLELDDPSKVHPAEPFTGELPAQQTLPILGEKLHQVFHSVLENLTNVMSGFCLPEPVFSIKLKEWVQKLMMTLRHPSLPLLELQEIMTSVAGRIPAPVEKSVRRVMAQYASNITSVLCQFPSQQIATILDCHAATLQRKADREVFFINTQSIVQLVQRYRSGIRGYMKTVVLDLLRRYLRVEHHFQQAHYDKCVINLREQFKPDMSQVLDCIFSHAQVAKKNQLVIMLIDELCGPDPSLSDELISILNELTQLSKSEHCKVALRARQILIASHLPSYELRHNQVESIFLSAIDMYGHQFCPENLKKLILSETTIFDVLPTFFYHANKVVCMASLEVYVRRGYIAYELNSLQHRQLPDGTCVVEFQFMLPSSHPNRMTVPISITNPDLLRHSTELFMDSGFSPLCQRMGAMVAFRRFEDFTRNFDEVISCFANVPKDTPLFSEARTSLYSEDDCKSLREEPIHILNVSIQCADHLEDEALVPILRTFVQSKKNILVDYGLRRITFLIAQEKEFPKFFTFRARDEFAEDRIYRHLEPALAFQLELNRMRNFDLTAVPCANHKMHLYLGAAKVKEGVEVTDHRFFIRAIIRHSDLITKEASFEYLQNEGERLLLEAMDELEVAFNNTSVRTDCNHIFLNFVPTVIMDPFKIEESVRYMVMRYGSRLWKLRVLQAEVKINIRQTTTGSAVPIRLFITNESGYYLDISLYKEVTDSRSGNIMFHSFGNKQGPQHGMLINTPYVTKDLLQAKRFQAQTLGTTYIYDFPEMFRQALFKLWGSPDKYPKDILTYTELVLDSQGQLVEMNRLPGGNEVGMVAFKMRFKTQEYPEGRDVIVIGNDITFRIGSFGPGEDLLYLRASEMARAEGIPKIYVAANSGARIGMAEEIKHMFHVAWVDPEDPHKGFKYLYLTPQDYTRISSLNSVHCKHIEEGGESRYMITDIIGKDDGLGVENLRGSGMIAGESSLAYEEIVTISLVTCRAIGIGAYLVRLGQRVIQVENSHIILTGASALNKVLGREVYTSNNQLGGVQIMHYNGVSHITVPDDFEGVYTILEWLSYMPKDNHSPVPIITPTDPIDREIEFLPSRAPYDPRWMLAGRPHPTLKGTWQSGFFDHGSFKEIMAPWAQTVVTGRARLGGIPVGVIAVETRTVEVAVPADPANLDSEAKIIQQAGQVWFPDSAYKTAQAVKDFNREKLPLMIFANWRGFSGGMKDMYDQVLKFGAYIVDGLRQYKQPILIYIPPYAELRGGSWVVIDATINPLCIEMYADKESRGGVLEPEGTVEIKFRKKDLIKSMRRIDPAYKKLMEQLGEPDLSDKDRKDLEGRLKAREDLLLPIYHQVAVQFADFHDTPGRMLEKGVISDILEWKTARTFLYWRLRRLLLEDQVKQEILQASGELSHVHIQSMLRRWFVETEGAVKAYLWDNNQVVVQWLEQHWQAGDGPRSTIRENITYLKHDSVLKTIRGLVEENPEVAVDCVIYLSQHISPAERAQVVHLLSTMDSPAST", "experiment": "purified ACC incubated with MK-4074, ATP, acetyl-CoA and NaH14CO3", "type": "biochemical"}},
  "data": [
    {"smiles": "COc1cc(C(=O)N2CCC3(CC2)CC(=O)c2cc(-c4cncc(C(=O)O)c4)ccc2O3)cc2c1c(C)cn2C1CC1", "note": "[MK-4074]", "values": [
      {"measurement": "IC50", "setting": "[1]", "result": "~3", "unit": "nM"},
      {"measurement": "IC50", "setting": "[2]", "result": "~3", "unit": "nM"}
    ]}
  ]
}
